This is an account of results in patent publication US20230086985A1, “POLYMERIC COMPOUNDS INCLUDING AN ACCEPTOR DYE AND DONOR LUMINOPHORE” (North Carolina State University, priority 2019, published 2023).

The structures appear in SMILES notation. Where two headings read alike, the source gives them in different places.

A short description of data set [1]: Absorption and emission spectra of dye-loaded copolymers F1-F3 and dyes D1-D3. The data set is classed as physicochemical. An excerpt: Measurements of Absorption and Emission Spectra. The target dye-loaded copolymers F1-F3 were then subject to investigations of their spectroscopic properties in both organic solvents and aqueous solution. […] Attaching to the 120-kDa amphiphilic copolymer drastically enhances the water solubility of BODIPY D1 and chlorin D2 without strong perturbation on the spectroscopic properties. Emission band for F1 and F2 in water remains the same as the ones measured in organic solutions, showing minimal dye-dye interaction is involved in aqueous solution of F1 and F2 at μM concentration. […] This negative result may be because of the inappropriate size of the copolymer backbone. Polymer larger in size may be required to encapsulate large hydrophobic chromophores like the phthalocyanine D3.
General Methods. All chemicals obtained commercially were used as received unless otherwise noted. Reagent-grade solvents (CH2Cl2, THF, methanol) and HPLC-grade water were used as received. NMR data was measured in a solution of CDCl3 unless otherwise noted. Noncommercial compounds 1, 2, and 4 were prepared following literature procedures. Analytical SEC experiments were performed with PLgel 10000 Å SEC column, eluted with ACS grade THF (stabilized with 400 ppm of BHT) at 35° C. with a flow rate at 1 mL/min. Samples were detected with Agilent 1260 infinity refractive index detector. Absorption spectra were measured on Agilent 8453 and Shimadzu UV1800 instruments using dilute (μmolar) solutions of the compound in UV transparent (e.g., quartz) cuvettes versus a solvent blank at room temperature.

Data set [2] is described as follows: Fluorescence quantum yield of F1-F3 and D1-D3. The data set is classed as physicochemical. The text has this: Fluorescence Quantum Yields. […] […] These comparisons indicate the absence of dye-dye quenching resulting from the aggregation for F1 and F2 in μM aqueous solutions. […] Also, a smaller phthalocyanine skeleton (e.g. with methyl instead of heptyl as peripheral groups) may be encapsulated with the current length of copolymer successfully.

The conditions of data set [3]: aqueous solution, cited from earlier work.
The conditions of data set [4]: aqueous solution, Hg(II); cited from earlier work.
The mark [5] stands for this setting: solvent CH2Cl2, room temperature.
[6] abbreviates: solvent toluene, room temperature.

`Cc1cc(C)c(C2=C3C=CC=[N+]3[B-](F)(F)n3cc(C#CCCCCC(=O)NN)cc32)c(C)c1` [Compound D1, 2-[6-(N-Aminocarbamoyl)hex-1-yn-1-yl]-8-mesityl-4,4-difluoro-4-bora-3a,4a-diaza-s-indacene]: in data set [1] (setting [5]), the FWHM was determined as 1628 cm⁻¹, the “emission maximum wavelength (λem max)” value turned out to be 557 nm and the “λabs^max” value was 543 nm. This compound also showed a Φf in data set [2] (setting [5]) of 0.065.
`Cc1cc(C)c(-c2c3nc(c(-c4ccc(C(=O)NN)cc4)c4ccc(cc5nc(cc6ccc2[nH]6)CC5(C)C)[nH]4)C=C3)c(C)c1` [Compound D2, 5-[4-(N-Aminocarbamoyl)phenyl]-10-Mesityl-18,18-dimethylchlorin]: in data set [1] (setting [5]), the FWHM amounted to 342 cm⁻¹, the “emission maximum wavelength (λem max)” value turned out to be 641 nm and the “λabs^max” value is 640 nm. The compound further returned a Φf in data set [2] (setting [5]) of 0.19.
Take `CCCCCCCc1cc2c(cc1CCCCCCC)-c1nc-2nc2[nH]c(nc3nc(nc4[nH]c(n1)c1cc(CCCCCCC)c(CCCCCCC)cc41)-c1cc(C#Cc4ccc(CC(=O)NN)cc4)ccc1-3)c1cc(CCCCCCC)c(CCCCCCC)cc21` [Compound D3, 2-[4-(N-Aminocarbamoyl)methylphenylethynyl]-9,10,16,17,23,24-hexaheptylphthalocyanine]: in data set [1] (setting [6]), the FWHM amounted to 1113 cm⁻¹, the “emission maximum wavelength (λem max)” value was found to be 707 nm and the “λabs^max” value amounted to 702 nm. In addition, the Φf in data set [2] (setting [6]) amounted to 0.68.
With `CCN(CC)c1ccc2c(c1)Oc1cc(N(CC)CC)ccc1C21c2ccccc2C(=O)N1N` [Rhodamine-B hydrazide], the “change in absorption or fluorescence spectra” value in data set [3] (Cu(II)) and in data set [4] was “significant change” throughout. Further, in data set [3], the “Cu(II) concentration at which selective detection was highly sensitive and quantitative” value is on record as 10^−7 M.
